≈ marks a conversion by molar mass, not a printed value.

Consider ten molecules from patent US3995044A, “Pyridine carboxylic acid amides for mycobacterium infections” (priority 1974, dated 1976).

In test [1] the test system is Mycobacterium tuberculosis H37Rv. The test is described as follows: MIC in modified Difco-Tb-Bouillon, normally sensitive strain. The test is classed as cell-based.
The next test relates to M. bovis Ravenal. The test is described as follows: microbe, parasite or virus in culture. The test is classed as cell-based. The settings on record: Mycobacterium tuberculosis variant bovis, read-out: MIC, M. bovis Ravenal.
Test [2] relates to "Atypical mycobacteria" Runyon Grouping 1. The test is described as follows: Anti-mycobacterial spectrum of action (MIC), atypical mycobacteria Runyon grouping 1. The test is classed as cell-based. Particulars: modified Difco-Tb-Bouillon.
For test [3], the system named is "Atypical mycobacteria" Runyon Grouping 2. The test is described as follows: Anti-mycobacterial spectrum of action (MIC), atypical mycobacteria Runyon grouping 2. The test is classed as cell-based. Particulars: modified Difco-Tb-Bouillon.
In test [4] the test system is "Atypical mycobacteria" Runyon Grouping 3. The test is described as follows: Anti-mycobacterial spectrum of action (MIC), atypical mycobacteria Runyon grouping 3. The test is classed as cell-based. Particulars: modified Difco-Tb-Bouillon.
Test [5] deals with "Atypical mycobacteria" Runyon Grouping 4. The test is described as follows: Anti-mycobacterial spectrum of action (MIC), atypical mycobacteria Runyon grouping 4. The test is classed as cell-based. Particulars: modified Difco-Tb-Bouillon.
Test [6] concerns Mycobacterium tuberculosis H37Rv. The test is described as follows: Minimum inhibitory concentration on Lowenstein-Jensen egg medium, normally sensitive test strain. The test is classed as cell-based. Particulars: per ml of nutrient medium.
For test [7] the test system is unchanged. The test is described as follows: In vivo action in mice infected with tuberculosis (Tb germ count in spleen). The settings on record: once daily, 2 weeks (5 times per week); for In vivo action, index of reduction in Tb germs, Tb-mice, orally: 100 mg/kg orally; for In vivo action, index of reduction in Tb germs, Tb-mice, subcutaneously: 100 mg/kg subcutaneously. Further details: species or system white mice (CFI breed). As to the method: (§1) The animal experiments were above all carried out with white mice (CFI breed, Winkelmann, Kirchborchen) infected with Mycobacterium tuberculosis H37Rv. After intravenous infection with 10^4 -10^5 germ units/mouse, an oral or subcutaneous treatment was carried out once daily for a period of 2 weeks (that is to say 5 times per week). At predetermined intervals of time (11th, 14th and 17th day after infection) mice from the treatment groups were killed, the spleens were removed and standardised smear preparations were produced from the homogenate; the tubercle germ content in these was evaluated by means of fluorescence microscopy. […] The values obtained are grouped together in 5 rating groups and give a germ count index; the indices denote the following:
(§2) Index 0 corresponds to a reduction in the germ count of
(§3) Index 1 corresponds to a reduction in the germ count of
(§4) Index 2 corresponds to a reduction in the germ count of
(§5) >40-70% = distinct action
(§6) Index 3 corresponds to a reduction in the germ count of
Index 4 corresponds to a reduction in the germ count of […]

Test [8] has the same test system. The test is described as follows: In vivo action in guinea pigs infected with tuberculosis (Tb germ count in lung). Particulars: 30 mg/kg orally, once daily from 14th day, 3 weeks (5 times per week). Here is the method: as §1, §2, §3, §4, §5, §6
Index 4 corresponds to a reduction in the germ count of
In addition to the experiments on mice infected with tuberculosis, experiments were carried out analogously on guinea pigs. In this case, the germ count was determined on the lung homogenate. The animals were infected subcutaneously intrainguinally with Mycobacterium tuberculosis H37Rv and were subjected to therapy once daily from the 14th day after infection over a period of 3 weeks, that is to say 5 times per week. The germ counts were determined in the 4th, 5th and 6th week after infection.

Where [9] appears, read: Table 2, read-out: MIC, normally sensitive H37Rv (Table 2).
Setting [10] is: Table 3, read-out: MIC, M. tuberculosis H37Rv (Table 3).

As for `O=C(NCC1CCC=CO1)c1cc([N+](=O)[O-])cc([N+](=O)[O-])c1` (stereo not shown) [Example 22], the MIC in test [1] (setting [9]) was 0.4 µg/mL (≈ 1.3 µM); in [1] (setting [10]), 0.4 µg/mL (≈ 1.3 µM); with M. bovis Ravenal it was 3.1 µg/mL (≈ 10.1 µM); in test [2] it was 1.6 µg/mL (≈ 5.21 µM); in [3], 1.6 µg/mL (≈ 5.21 µM); in test [4] it was greater than 100 µg/mL. In test [5], this molecule showed an MIC of 1.6 µg/mL (≈ 5.21 µM).
For `O=C(NCC1CCCO1)c1cc([N+](=O)[O-])cc([N+](=O)[O-])c1` (stereo not shown) [Example 20], the MIC came to 1.6 µg/mL (≈ 5.42 µM) in test [1] (setting [9]); 1.6 µg/mL (≈ 5.42 µM) in [1] (setting [10]); 3.1 µg/mL (≈ 10.5 µM) with M. bovis Ravenal; 6.2 µg/mL (≈ 21 µM) in test [2]; 6.2 µg/mL (≈ 21 µM) in test [3]; 100 µg/mL (≈ 339 µM) in [4]. The MIC in [5] was found to be 6.2 µg/mL (≈ 21 µM).
On to `CC(NC(=O)c1cc([N+](=O)[O-])cc([N+](=O)[O-])c1)c1ccccn1` (stereo not shown) [Example 29], for which the MIC turned out to be 2 µg/mL (≈ 6.32 µM) in [6]; 1.6 µg/mL (≈ 5.06 µM) in [1] (setting [9]); 1.6 µg/mL (≈ 5.06 µM) in [1] (setting [10]); 3.1 µg/mL (≈ 9.8 µM) in the test with M. bovis Ravenal; 3.1 µg/mL (≈ 9.8 µM) in [2]; 3.1 µg/mL (≈ 9.8 µM) in test [3]. Besides, the results for the MIC in test [4] and in test [5] were 100 µg/mL (≈ 316 µM) and 3.1 µg/mL (≈ 9.8 µM), respectively. For the same molecule, the “In vivo action, index of reduction in Tb germs, Tb-mice, orally” value in [7] was 4 (reduction in the germ count of >90% = very good action). For the same molecule, in [7], the “In vivo action, index of reduction in Tb germs, Tb-mice, subcutaneously” value is recorded as 3 (reduction in the germ count of >70-90% = good action).
For `O=C(NCc1ccc2ccccc2n1)c1cc([N+](=O)[O-])cc([N+](=O)[O-])c1` [Example 15], the MIC in test [6] turned out to be 1 µg/mL (≈ 2.84 µM); in test [1] (setting [9]), 0.2 µg/mL (≈ 0.568 µM); in [1] (setting [10]), 0.2 µg/mL (≈ 0.568 µM); with M. bovis Ravenal, 0.8 µg/mL (≈ 2.27 µM); in test [2], 1.6 µg/mL (≈ 4.54 µM); in [3], 6.2 µg/mL (≈ 17.6 µM). Besides, the MIC in test [4] and in test [5] was 1.6 µg/mL (≈ 4.54 µM) each time. Further, in test [7], the “In vivo action, index of reduction in Tb germs, Tb-mice, orally” value is 3 (reduction in the germ count of >70-90% = good action). In addition, the “In vivo action, index of reduction in Tb germs, Tb-mice, subcutaneously” value in test [7] is 2 (reduction in the germ count of >40-70% = distinct action). Further, the “In vivo action, index of reduction in Tb germs, Tb-guinea pigs, orally” value in [8] is on record as 3 (reduction in the germ count of >70-90% = good action).
`O=C(NCc1cccnc1)c1cc([N+](=O)[O-])cc([N+](=O)[O-])c1` [Example 12]: the MIC in test [6] was 32 µg/mL (≈ 106 µM). In test [7], the “In vivo action, index of reduction in Tb germs, Tb-mice, orally” value is on record as 2 (reduction in the germ count of >40-70% = distinct action) and the “In vivo action, index of reduction in Tb germs, Tb-mice, subcutaneously” value is 2 (reduction in the germ count of >40-70% = distinct action). For the same molecule, the “In vivo action, index of reduction in Tb germs, Tb-guinea pigs, orally” value in [8] was 3 (reduction in the germ count of >70-90% = good action).
As for `Cc1cccc(CNC(=O)c2cc([N+](=O)[O-])cc([N+](=O)[O-])c2)n1` [Example 14], the MIC came out at 3.1 µg/mL (≈ 9.8 µM) in test [1] (setting [9]); 3.1 µg/mL (≈ 9.8 µM) in [1] (setting [10]); 3.1 µg/mL (≈ 9.8 µM) in the test with M. bovis Ravenal; 6.2 µg/mL (≈ 19.6 µM) in test [2]; 12.5 µg/mL (≈ 39.5 µM) in test [3]; 25 µg/mL (≈ 79 µM) in test [4]. Besides, the MIC in test [5] was found to be 12.5 µg/mL (≈ 39.5 µM).
`O=C(NCCc1ccccn1)c1cc([N+](=O)[O-])cc([N+](=O)[O-])c1` [Example 10] gave an MIC in test [6] of 1 µg/mL (≈ 3.16 µM). In test [7], the “In vivo action, index of reduction in Tb germs, Tb-mice, orally” value is 2 (reduction in the germ count of >40-70% = distinct action) and the “In vivo action, index of reduction in Tb germs, Tb-mice, subcutaneously” value is 2 (reduction in the germ count of >40-70% = distinct action). For the same molecule, in test [8], the “In vivo action, index of reduction in Tb germs, Tb-guinea pigs, orally” value is reported as 3 (reduction in the germ count of >70-90% = good action).
On to `O=C(NCc1cnc2ccccc2c1)c1cc([N+](=O)[O-])cc([N+](=O)[O-])c1` [Example 9], for which the MIC in test [6] came out at 2 µg/mL (≈ 5.68 µM); in test [1] (setting [9]), 0.2 µg/mL (≈ 0.568 µM); in test [1] (setting [10]), 0.2 µg/mL (≈ 0.568 µM); in the test on M. bovis Ravenal it was 0.4 µg/mL (≈ 1.14 µM); in test [2], 3.1 µg/mL (≈ 8.8 µM); in test [3] it was 3.1 µg/mL (≈ 8.8 µM). Moreover, the MIC is greater than 100 µg/mL in test [4] and 1.6 µg/mL (≈ 4.54 µM) in test [5]. Further, the “In vivo action, index of reduction in Tb germs, Tb-mice, orally” value in [7] is on record as 1 (reduction in the germ count of >20-40% = trace action). Further, the “In vivo action, index of reduction in Tb germs, Tb-mice, subcutaneously” value in test [7] is 1 (reduction in the germ count of >20-40% = trace action). Moreover, in test [8], the “In vivo action, index of reduction in Tb germs, Tb-guinea pigs, orally” value is on record as 4 (reduction in the germ count of >90% = very good action).
Consider `O=C(NCc1ccccn1)c1cc([N+](=O)[O-])cc([N+](=O)[O-])c1` [Example 1, N-(pyrid-2-ylmethyl)-3,5-dinitrobenzoic acid amide], for which the MIC was determined as 1 µg/mL (≈ 3.31 µM) in test [6]; 1.6 µg/mL (≈ 5.29 µM) in test [1] (setting [9]); 1.6 µg/mL (≈ 5.29 µM) in test [1] (setting [10]); 3.1 µg/mL (≈ 10.3 µM) in the test with M. bovis Ravenal; 6.2 µg/mL (≈ 20.5 µM) in test [2]; 6.2 µg/mL (≈ 20.5 µM) in test [3]. Besides, the MIC came out at 50 µg/mL (≈ 165 µM) in test [4] and 6.2 µg/mL (≈ 20.5 µM) in test [5]. Moreover, in [7], the “In vivo action, index of reduction in Tb germs, Tb-mice, orally” value is given as 4 (reduction in the germ count of >90% = very good action). For the same molecule, in test [7], the “In vivo action, index of reduction in Tb germs, Tb-mice, subcutaneously” value is 3 (reduction in the germ count of >70-90% = good action). Further, in [8], the “In vivo action, index of reduction in Tb germs, Tb-guinea pigs, orally” value is on record as 4 (reduction in the germ count of >90% = very good action).
`O=C(NCc1ccncc1)c1cc([N+](=O)[O-])cc([N+](=O)[O-])c1` [Example 13] registered an MIC in test [6] of 32 µg/mL (≈ 106 µM). Further, in test [7], the “In vivo action, index of reduction in Tb germs, Tb-mice, orally” value is on record as 3 (reduction in the germ count of >70-90% = good action) and the “In vivo action, index of reduction in Tb germs, Tb-mice, subcutaneously” value is 2 (reduction in the germ count of >40-70% = distinct action). In test [8], the “In vivo action, index of reduction in Tb germs, Tb-guinea pigs, orally” value is reported as 4 (reduction in the germ count of >90% = very good action).
